pEC50: −log10 of the molar value. Like-named read-outs stand apart in the source and are kept apart here.
Columns and labels:
F508del = target: T1, F508del (Homo sapiens, UniProt P13569, DEL508-508); assay: 3T3 Assay: membrane potential optical assay for F508del correctors in NIH 3T3 cells; format: cell-based; conditions: for Emax: NIH3T3, F508del corrector assay, read-out: 3T3 Max Activity; for pEC50: F508del corrector assay
T1 construct: expressed in transfected cells; host or cells: NIH3T3 mouse fibroblasts
T1 sequence (P13569 with tags, fused parts or gaps DEL508-508): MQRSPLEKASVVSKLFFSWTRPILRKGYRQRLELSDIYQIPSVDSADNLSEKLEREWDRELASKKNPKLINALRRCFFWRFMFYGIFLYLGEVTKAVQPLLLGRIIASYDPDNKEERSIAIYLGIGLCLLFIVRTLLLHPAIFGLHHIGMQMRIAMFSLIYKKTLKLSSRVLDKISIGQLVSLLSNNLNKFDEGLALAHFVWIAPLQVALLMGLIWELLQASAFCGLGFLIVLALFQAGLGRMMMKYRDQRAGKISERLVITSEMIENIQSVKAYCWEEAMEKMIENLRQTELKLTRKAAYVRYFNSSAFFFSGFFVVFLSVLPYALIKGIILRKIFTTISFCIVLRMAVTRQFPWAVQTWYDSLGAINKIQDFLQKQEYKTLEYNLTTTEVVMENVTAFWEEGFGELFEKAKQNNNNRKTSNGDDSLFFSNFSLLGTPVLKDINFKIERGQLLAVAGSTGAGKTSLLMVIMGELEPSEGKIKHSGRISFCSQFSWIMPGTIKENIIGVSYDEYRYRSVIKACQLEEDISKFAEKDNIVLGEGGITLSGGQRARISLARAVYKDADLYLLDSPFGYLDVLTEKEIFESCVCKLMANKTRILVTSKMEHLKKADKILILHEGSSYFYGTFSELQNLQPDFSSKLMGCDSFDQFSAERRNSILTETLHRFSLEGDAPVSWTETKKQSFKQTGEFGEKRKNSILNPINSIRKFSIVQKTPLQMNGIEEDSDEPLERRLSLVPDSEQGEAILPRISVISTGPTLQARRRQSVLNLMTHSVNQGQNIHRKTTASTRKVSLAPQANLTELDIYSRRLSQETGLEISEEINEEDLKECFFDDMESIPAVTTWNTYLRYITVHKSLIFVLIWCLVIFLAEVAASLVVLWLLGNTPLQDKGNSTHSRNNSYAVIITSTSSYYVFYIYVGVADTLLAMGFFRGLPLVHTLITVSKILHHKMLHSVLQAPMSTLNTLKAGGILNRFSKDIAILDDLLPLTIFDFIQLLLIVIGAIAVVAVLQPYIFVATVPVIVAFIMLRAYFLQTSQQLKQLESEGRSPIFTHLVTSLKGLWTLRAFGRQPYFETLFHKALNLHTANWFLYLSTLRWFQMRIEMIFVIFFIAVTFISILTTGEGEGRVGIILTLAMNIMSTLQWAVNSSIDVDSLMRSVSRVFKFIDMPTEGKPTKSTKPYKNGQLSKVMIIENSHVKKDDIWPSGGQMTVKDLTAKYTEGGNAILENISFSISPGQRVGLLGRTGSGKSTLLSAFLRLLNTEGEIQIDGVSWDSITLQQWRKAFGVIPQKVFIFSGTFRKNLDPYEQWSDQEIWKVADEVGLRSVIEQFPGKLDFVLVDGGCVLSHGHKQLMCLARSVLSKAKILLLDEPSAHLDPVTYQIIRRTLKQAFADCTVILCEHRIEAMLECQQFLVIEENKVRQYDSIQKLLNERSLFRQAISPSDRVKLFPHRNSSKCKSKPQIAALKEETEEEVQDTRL
From the text: The assay utilizes fluorescent voltage sensing dyes to measure changes in membrane potential using a fluorescent plate reader (e.g., FLIPR III, Molecular Devices, Inc.) as a readout for increase in functional F508del in NIH 3T3 cells. The driving force for the response is the creation of a chloride ion gradient in conjunction with channel activation by a single liquid addition step after the cells have previously been treated with compounds and subsequently loaded with a voltage sensing dye.
To identify correctors of F508del, a single-addition HTS assay format was developed. This HTS assay utilizes fluorescent voltage sensing dyes to measure changes in membrane potential on the FLIPR III as a measurement for increase in gating (conductance) of F508del in F508del NIH 3T3 cells. The F508del NIH 3T3 cell cultures were incubated with the corrector compounds at a range of concentrations for 18-24 hours at 37° C., and subsequently loaded with a redistribution dye. The driving force for the response is a Cl^− ion gradient in conjunction with channel activation with forskolin in a single liquid addition step using a fluorescent plate reader such as FLIPR III.
Bath Solution #1: (in mM) NaCl 160, KCl 4.5, CaCl2) 2, MgCl2 1, HEPES 10, pH 7.4 with NaOH.
Chloride-free bath solution: Chloride salts in Bath Solution #1 (above) are substituted with gluconate salts.
NIH3T3 mouse fibroblasts stably expressing F508del are used for optical measurements of membrane potential. The cells are maintained at 37° C. in 5% CO2 and 90% humidity in Dulbecco's modified Eagle's medium supplemented with 2 mM glutamine, 10% fetal bovine serum, 1×NEAA, b-ME, 1× pen/strep, and 25 mM HEPES in 175 cm^2 culture flasks. For all optical assays, the cells were seeded at ˜20,000/well in 384-well matrigel-coated plates. For the correction assays, the cells are cultured at 37° C. with and without compounds for 16-24 hours.

CFTR [1] = target: T2, CFTR (Homo sapiens, UniProt P13569); assay: Membrane Potential Dye, Enteroid Assay A; format: cell-based; conditions: for pEC50: read-out: Ent. A EC50
T2 sequence (P13569 with tags, fused parts or gaps DEL508-508): as above
Experimental: Base medium (ADF+++) consisted of Advanced DMEM/Ham's F12, 2 mM Glutamax, 10 mM HEPES, 1 µg/mL penicillin/streptomycin.
Intestinal enteroid maintenance medium (IEMM) consisted of ADF+++, 1× B27 supplement, 1× N2 supplement, 1.25 mM N-acetyl cysteine, 10 mM Nicotinamide, 50 ng/mL hEGF, 10 nM Gastrin, 1 pg/mL hR-spondin-1, 100 ng/mL hNoggin, TGF-b type 1 inhibitor A-83-01, 100 μg/mL Primocin, […] P38 MAPK inhibitor SB202190.
Bath 1 Buffer consisted of 1 mM MgCl2, 160 mM NaCl, 4.5 mM KCl, 10 mM HEPES, 10 mM Glucose, 2 mM CaCl2).
Chloride Free Buffer consisted of 1 mM Magnesium Gluconate, 2 mM Calcium Gluconate, 4.5 mM Potassium Gluconate, 160 mM Sodium Gluconate, 10 mM HEPES, 10 mM Glucose.
Bath1 Dye Solution consisted of Bath 1 Buffer, 0.04% Pluronic F127, […] Methyl Oxonol, 30 μM CaCCinh-A01, 30 μM Chicago Sky Blue.
Chloride Free Dye Solution consisted of Chloride Free Buffer, 0.04% Pluronic F127, 20 μM Methyl Oxonol, 30 μM CaCCinh-A01, 30 μM Chicago Sky Blue.
Chloride Free Dye Stimulation Solution consisted of Chloride Free Dye Solution, 10 μM forskolin, 100 μM IBMX, and 300 nM Compound III.
Human intestinal epithelial enteroid cells were obtained from the Hubrecht Institute for Developmental Biology and Stem Cell Research, Utrecht, The Netherlands and expanded in T-Flasks as previously described (Dekkers J F, Wiegerinck C L, de Jonge H R, Bronsveld I, Janssens H M, de Winter-de Groot K M, Brandsma A M, de Jong N W M, Bijvelds M J C, Scholte B J, Nieuwenhuis E E S, van den Brink S, Clevers H, van der Ent C K, Middendorp S and M Beekman J M. A functional CFTR assay using primary cystic fibrosis intestinal organoids. Nat Med. 2013 July; 19(7):939-45.).
Cells were recovered in cell recovery solution, collected by centrifugation at 650 rpm for 5 min at 4° C., resuspended in TryPLE and incubated for 5 min at 37° C. Cells were then collected by centrifugation at 650 rpm for 5 min at 4° C. and resuspended in IEMM containing 10 μM ROCK inhibitor (RI). The cell suspension was passed through a 40 μm cell strainer and resuspended at 1×10^6 cells/mL in IEMM containing 10 μM RI. Cells were seeded at 5000 cells/well into multi-well plates and incubated for overnight at 37° C., 95% humidity and 5% CO2 prior to assay.
Enteroid cells were incubated with test compound in IEMM for 18-24 hours at 37° C., 95% humidity and 5% CO2. […] Briefly, cells were washed 5 times in Bath 1 Buffer. Bath 1 Dye Solution was added, and the cells were incubated for 25 min at room temperature. Following dye incubation, cells were washed 3 times in Chloride Free Dye Solution. Chloride transport was initiated by addition of Chloride Free Dye Stimulation Solution and the fluorescence signal was read for 15 min. […] Chloride transport was then expressed as a percentage of the chloride transport following treatment with 3 μM (S)—N-((6-aminopyridin-2-yl)sulfonyl)-6-(3-fluoro-5-isobutoxyphenyl)-2-(2,2,4-trimethylpyrrolidin-1-yl)nicotinamide, 3 μM (R)-1-(2,2-difluorobenzo[d][1,3]dioxol-5-yl)-N-(1-(2,3-dihydroxypropyl)-6-fluoro-2-(1-hydroxy-2-methylpropan-2-yl)-1H-indol-5-yl)cyclopropanecarboxamide and 300 nM acute N-[2,4-bis(1,1-dimethylethyl)-5-hydroxyphenyl]-1,4-dihydro-4-oxoquinoline-3-carboxamide triple combination control (% Activity).

[2] = amide bond, DMF
CFTR [3] = target: T2, CFTR; assay: Membrane Potential Dye, Enteroid Assay B; format: cell-based
In short: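 Human intestinal enteroids seeded at 5000 cells/well, treated with compound 18-24 h at 37 °C, then loaded 25 min with methyl oxonol membrane-potential dye plus CaCC blockers. Chloride transport started in chloride-free buffer with 10 μM forskolin, 100 μM IBMX and 300 nM Compound III, read 15 min; expressed as % of triple-combination control.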

For `CCc1c2nc(nc1-c1ccccc1CN(C)C)NS(=O)(=O)c1cccc(c1)NC(=O)c1cccc(c1)O2` [Compound 10], the Emax (F508del) was less than 30%.
With `CCc1c2nc(nc1-c1ccccc1OCC(C)C)NS(=O)(=O)c1cccc(c1)NC(=O)c1cccc(c1)O2` [Compound 26] the “Ent. A Max Activity” value (CFTR [1]) was “+ (+ is <30%)”, the pEC50 (CFTR [1]) was 5.52 to 6.00 and the pEC50 (F508del) was greater than 6.00. It also gave an Emax (F508del) greater than 60%.
For `CCc1c2nc(nc1-c1ccccc1C(C)C)NS(=O)(=O)c1cccc(c1)NC(=O)c1cc(ccc1Cl)O2` [Compound 5, 18-Chloro-4-ethyl-5-[2-(propan-2-yl)phenyl]-2-oxa-9λ^6-thia-6,8,15,23-tetraazatetracyclo[15.3.1.13,7.110,14]tricosa-1(20),3(23),4,6,10(22),11,13,17(21),18-nonaene-9,9,16-trione], the “Ent. A Max Activity” value (CFTR [1]) was “+++ (+++ is >60%)”, the pEC50 (CFTR [1]) was greater than 6.00 and the pEC50 (F508del) was greater than 6.00. For the same compound, the Emax (F508del) was greater than 60%.
`CCc1c2nc(nc1-c1cccc(C)c1C)NS(=O)(=O)c1cccc(c1)NC(=O)c1cccc(c1)O2` [Compound 17] showed a pEC50 (F508del) greater than 6.00 and an Emax (F508del) greater than 60%.
For `CCc1c2nc(nc1-c1ccccc1OC(C)C)NS(=O)(=O)c1cccc(c1)NC(=O)c1cccc(c1)O2` [Compound 29], the “Ent. A Max Activity” value (CFTR [1]) was “+ (+ is <30%)”, the pEC50 (F508del) was greater than 6.00 and the Emax (F508del) was greater than 60%.
`CCc1c2nc(nc1-c1ccc([S+](C)[O-])cc1)NS(=O)(=O)c1cccc(c1)NC(=O)c1cccc(c1)O2` (centres unmarked) [Compound 18] gave an Emax (F508del) of less than 30%.
In the case of `Cc1ccccc1-c1nc2nc(c1C(F)(F)F)OCC1CN(CCN1CCC1(C(F)(F)F)CC1)C(=O)c1cccc(c1)S(=O)(=O)N2` (centres unmarked) [Compound 32, 12-(2-Methylphenyl)-13-(trifluoromethyl)-18-{2-[1-(trifluoromethyl)cyclopropyl]ethyl}-15-oxa-8λ^6-thia-1,9,11,18,22-pentaazatetracyclo[15.3.1.13,7.110,14]tricosa-3(23),4,6,10(22),11,13-hexaene-2,8,8-trione], the “Ent. A Max Activity” value (CFTR [1]) was “++ (++ is 30-60%)”, the pEC50 (CFTR [1]) was 5.52 to 6.00 and the ring closure, yield after HPLC ([2]; from Cc1ccccc1-c1nc(NS(=O)(=O)c2cccc(C(=O)O)c2)nc(OCC2CNCCN2CCC2(C(F)(F)F)CC2)c1C(F)(F)F, 14-membered ring, HATU/DIEA, 25.0 °C, 1.0 h, 3 steps) was 16%.
In the case of `CCc1c2nc(nc1-c1c(C)cccc1C)NS(=O)(=O)c1cccc(c1)NC(=O)c1cccc(c1)O2` [Compound 4, 5-(2,6-Dimethylphenyl)-4-ethyl-9,9-dioxo-2-oxa-9λ^6-thia-6,8,15,23-tetrazatetracyclo[15.3.1.13,7.110,14]tricosa-1(21),3,5,7(23),10,12,14(22),17,19-nonaen-16-one], the “Ent. A Max Activity” value (CFTR [1]) was “+++ (+++ is >60%)”, the pEC50 (CFTR [1]) was 5.52 to 6.00 and the pEC50 (F508del) was greater than 6.00. For the same compound, the Emax (F508del) was greater than 60%.
For `CCc1c2nc(nc1-c1ccccc1C1CCC1)NS(=O)(=O)c1cccc(c1)NC(=O)c1cccc(c1)O2` [Compound 1, 5-(2-Cyclobutylphenyl)-4-ethyl-9,9-dioxo-2-oxa-9λ^6-thia-6,8,15,23-tetrazatetracyclo[15.3.1.13,7.110,14]tricosa-1(21),3,5,7(23),10,12,14(22),17,19-nonaen-16-one], the “Ent. A Max Activity” value (CFTR [1]) was “++ (++ is 30-60%)”, the pEC50 (CFTR [1]) was greater than 6.00 and the pEC50 (F508del) was greater than 6.00. It also gave an Emax (F508del) greater than 60%.
For `CCc1c2nc(nc1-c1ccccc1COCCOC)NS(=O)(=O)c1cccc(c1)NC(=O)c1cccc(c1)O2` [Compound 11], the pEC50 (F508del) was greater than 6.00 and the Emax (F508del) was greater than 60%.
With `CCc1c2nc(nc1-c1ccccc1COC)NS(=O)(=O)c1cccc(c1)NC(=O)c1cccc(c1)O2` [Compound 12] the pEC50 (F508del) was greater than 6.00 and the Emax (F508del) was greater than 60%.
For `Cc1cccc(C)c1-c1nc2nc(c1OC(C)C)OC[C@@H](CC(C)C)NC(=O)c1cccc(c1)S(=O)(=O)N2` [Compound 165, (11R)-6-(2,6-Dimethylphenyl)-11-isobutyl-7-isopropoxy-2,2-dioxo-9-oxa-2λ^6-thia-3,5,12,19-tetrazatricyclo[12.3.1.14,8]nonadeca-1(18),4(19),5,7,14,16-hexaen-13-one], the “Ent. A Max Activity” value (CFTR [1]) was “+++ (+++ is >60%)”, the pEC50 (CFTR [1]) was greater than 6.00 and the ring closure, yield after HPLC ([2]; from Cc1cccc(C)c1-c1nc(NS(=O)(=O)c2cccc(C(=O)O)c2)nc(OC[C@H](N)CC(C)C)c1OC(C)C, 13-membered ring, HATU/Et3N, 12.0 mM, 0.5 h, 2 steps) was 8%. The “Ent. B Max Activity” value (CFTR [3]) was “+++ (+++ is >60%)” and the pEC50 (CFTR [3]; read-out: Ent. B EC50) was greater than 6.00.
With `Cc1ccccc1-c1nc2nc(c1C(C)(C)C)OCC1CN(CCN1CCC1(C(F)(F)F)CC1)C(=O)c1cccc(c1)S(=O)(=O)N2` (centres unmarked) [Compound 33, 13-tert-Butyl-12-(2-methylphenyl)-18-{2-[1-(trifluoromethyl)cyclopropyl]ethyl}-15-oxa-8λ^6-thia-1,9,11,18,22-pentaazatetracyclo[15.3.1.13,7.110,14]tricosa-3(23),4,6,10(22),11,13-hexaene-2,8,8-trione] the “Ent. A Max Activity” value (CFTR [1]) was “+++ (+++ is >60%)”, the pEC50 (CFTR [1]) was 5.52 to 6.00 and the ring closure, yield after HPLC ([2]; from Cc1ccccc1-c1nc(NS(=O)(=O)c2cccc(C(=O)O)c2)nc(OCC2CNCCN2CCC2(C(F)(F)F)CC2)c1C(C)(C)C, 14-membered ring, HATU/DIEA, 25.0 °C, 1.0 h, 3 steps) was 8%.
With `CCc1c2nc(nc1-c1c(C)c(C)c(C)c(C)c1C)NS(=O)(=O)c1cccc(c1)NC(=O)c1cccc(c1)O2` [Compound 2, 4-Ethyl-9,9-dioxo-5-(2,3,4,5,6-pentamethylphenyl)-2-oxa-9λ^6-thia-6,8,15,23-tetrazatetracyclo[15.3.1.13,7.110,14]tricosa-1(21),3,5,7(23),10,12,14(22),17,19-nonaen-16-one] the pEC50 (F508del) was greater than 6.00 and the Emax (F508del) was greater than 60%.
`Cc1ccc2cc1Oc1nc(nc(-c3c(C)cccc3C)c1Cl)NS(=O)(=O)c1cccc(c1)NC2=O` [Compound 8] showed a pEC50 (F508del) greater than 6.00 and an Emax (F508del) greater than 60%.
`CCc1c2nc(nc1-c1c(C)cc(C)cc1C)NS(=O)(=O)c1cccc(c1)NC(=O)c1cccc(c1)O2` [Compound 19] showed a pEC50 (F508del) greater than 6.00 and an Emax (F508del) greater than 60%.

— patent publication US20230374038A1, “MODULATORS OF CYSTIC FIBROSIS TRANSMEMBRANE CONDUCTANCE REGULATOR” (VERTEX PHARMACEUTICALS INCORPORATED, priority 2020, published 2023)
